Assay results taken from ChEMBL document CHEMBL4507274 (2021).
Activity calls are given as the source filed them. The calls are words filed in the database; no cut-off is given here.

What was measured:
[1] = tested on: Epidermal growth factor receptor (Homo sapiens), P00533 [UNDEFINED MUTATION]; settings: Compound concentration 100.0 nM
[2] = tested on: Epidermal growth factor receptor (Homo sapiens), P00533 [L858R,T790M]; settings: Compound concentration 100.0 nM
[3] = tested on: PC-3; assay: Prostate PC-3 cell line MDS Pharma Services Proliferation Assay; assay type: functional, cell-based, Homo sapiens
[4] = target: RAF proto-oncogene serine/threonine-protein kinase (Homo sapiens) (UniProt P04049); assay: c-RAF (h) Upstate kinase activity assay; settings: Compound concentration 10.0 uM
[5] = Leukemia […] cell line MDS Pharma Services Proliferation Assay; assay type: functional, cell-based, Homo sapiens
[6] = target: Mitogen-activated protein kinase 10 (Homo sapiens) (UniProt P53779); assay: JNK3 (h) Upstate kinase activity assay; settings: Compound concentration 10.0 uM
[7] = target: CDK7/Cyclin H/MNAT1 (Homo sapiens) (UniProt P51946+P50613+P51948); assay: CDK7/ cyclin H/ MATI (h) Upstate kinase activity assay; assay type: protein-complex assay; settings: Compound concentration 10.0 uM
[8] = target: Protein kinase C alpha type (Homo sapiens) (UniProt P17252); assay: PKCalpha (h) Upstate kinase activity assay; settings: Compound concentration 10.0 uM
[9] = target: T1, Tyrosine-protein kinase ZAP-70 (Homo sapiens) (UniProt P43403); assay: ZAP-70 (h) Upstate kinase activity assay; settings: Compound concentration 10.0 uM
T1 sequence (whole entry): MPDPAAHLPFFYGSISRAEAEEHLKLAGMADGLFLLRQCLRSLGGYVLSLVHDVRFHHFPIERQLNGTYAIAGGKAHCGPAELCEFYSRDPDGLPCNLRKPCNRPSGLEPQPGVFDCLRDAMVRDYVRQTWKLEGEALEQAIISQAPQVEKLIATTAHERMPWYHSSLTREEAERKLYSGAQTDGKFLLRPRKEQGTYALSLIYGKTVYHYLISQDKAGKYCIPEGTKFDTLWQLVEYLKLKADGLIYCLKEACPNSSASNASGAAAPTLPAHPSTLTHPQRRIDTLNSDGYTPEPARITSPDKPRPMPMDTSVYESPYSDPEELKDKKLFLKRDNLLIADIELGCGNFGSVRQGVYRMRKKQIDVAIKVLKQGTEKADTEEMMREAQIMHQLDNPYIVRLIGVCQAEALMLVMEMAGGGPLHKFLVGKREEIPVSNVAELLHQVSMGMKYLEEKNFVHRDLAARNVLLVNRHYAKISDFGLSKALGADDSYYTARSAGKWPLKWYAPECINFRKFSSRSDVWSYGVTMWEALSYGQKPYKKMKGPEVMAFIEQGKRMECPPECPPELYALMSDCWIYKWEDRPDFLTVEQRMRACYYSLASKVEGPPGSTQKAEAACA

[10] = target: T2, Calcium/calmodulin-dependent protein kinase type IV (Homo sapiens) (UniProt Q16566); assay: CaMKIV (h) Upstate kinase activity assay; settings: Compound concentration 10.0 uM
T2 sequence (whole entry): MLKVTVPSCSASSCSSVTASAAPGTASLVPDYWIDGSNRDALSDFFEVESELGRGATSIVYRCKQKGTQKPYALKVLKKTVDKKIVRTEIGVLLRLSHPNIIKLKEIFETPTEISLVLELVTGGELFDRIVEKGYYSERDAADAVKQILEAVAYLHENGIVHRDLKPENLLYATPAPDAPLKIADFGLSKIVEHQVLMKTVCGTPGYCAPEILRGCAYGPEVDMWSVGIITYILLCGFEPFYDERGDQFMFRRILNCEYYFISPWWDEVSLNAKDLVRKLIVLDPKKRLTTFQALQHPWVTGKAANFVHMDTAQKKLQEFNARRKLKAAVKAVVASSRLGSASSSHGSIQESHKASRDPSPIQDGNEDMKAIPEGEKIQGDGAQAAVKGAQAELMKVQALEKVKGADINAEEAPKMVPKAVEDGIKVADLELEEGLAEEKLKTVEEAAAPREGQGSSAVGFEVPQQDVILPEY

[11] = target: GABA-A receptor; anion channel (Rattus norvegicus) (UniProt O09028+P15431+P18506+P18508+P19969+P20236+P23574+P23576+P28471+P28473+P30191+P62813+P63079+P63138+Q91ZM7+Q9ES14); settings: Compound concentration 10.0 uM
[12] = target: Ephrin type-A receptor 2 (Homo sapiens) (UniProt P29317); assay: EphA2 (h) Upstate kinase activity assay; settings: Compound concentration 10.0 uM
[13] = target: Glycogen synthase kinase-3 beta (Homo sapiens) (UniProt P49841); assay: GSK3beta (h) Upstate kinase activity assay; settings: Compound concentration 10.0 uM
[14] = tested on: HC-4; assay: Liver HC-4 cell line MDS Pharma Services Proliferation Assay; assay type: functional, cell-based, Homo sapiens
[15] = target: Protein kinase C eta type (Homo sapiens) (UniProt P24723); assay: PKCeta (h) Upstate kinase activity assay; settings: Compound concentration 10.0 uM
[16] = Mechanistic tissue assay (arteria saphena rabbit); assay type: tissue-based, Oryctolagus cuniculus, Saphenous artery
[17] = target: Casein kinase I isoform delta (Homo sapiens) (UniProt P48730); assay: CK1delta (h) Upstate kinase activity assay; settings: Compound concentration 10.0 uM
Chain of Casein kinase I isoform delta (Homo sapiens) (P48730 whole entry, looked up, canonical isoform): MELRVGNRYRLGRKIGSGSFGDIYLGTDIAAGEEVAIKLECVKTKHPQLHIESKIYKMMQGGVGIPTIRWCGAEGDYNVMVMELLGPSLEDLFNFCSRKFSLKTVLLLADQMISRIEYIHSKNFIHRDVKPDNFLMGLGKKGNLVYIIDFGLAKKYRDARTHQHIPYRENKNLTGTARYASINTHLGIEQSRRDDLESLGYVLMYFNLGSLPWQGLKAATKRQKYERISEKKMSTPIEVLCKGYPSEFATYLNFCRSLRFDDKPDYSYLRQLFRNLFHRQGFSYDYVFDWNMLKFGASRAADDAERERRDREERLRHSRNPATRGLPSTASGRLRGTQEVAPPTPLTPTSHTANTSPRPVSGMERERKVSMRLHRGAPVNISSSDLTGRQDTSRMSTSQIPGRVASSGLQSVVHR

Chain of RAF proto-oncogene serine/threonine-protein kinase (Homo sapiens) (P04049 whole entry): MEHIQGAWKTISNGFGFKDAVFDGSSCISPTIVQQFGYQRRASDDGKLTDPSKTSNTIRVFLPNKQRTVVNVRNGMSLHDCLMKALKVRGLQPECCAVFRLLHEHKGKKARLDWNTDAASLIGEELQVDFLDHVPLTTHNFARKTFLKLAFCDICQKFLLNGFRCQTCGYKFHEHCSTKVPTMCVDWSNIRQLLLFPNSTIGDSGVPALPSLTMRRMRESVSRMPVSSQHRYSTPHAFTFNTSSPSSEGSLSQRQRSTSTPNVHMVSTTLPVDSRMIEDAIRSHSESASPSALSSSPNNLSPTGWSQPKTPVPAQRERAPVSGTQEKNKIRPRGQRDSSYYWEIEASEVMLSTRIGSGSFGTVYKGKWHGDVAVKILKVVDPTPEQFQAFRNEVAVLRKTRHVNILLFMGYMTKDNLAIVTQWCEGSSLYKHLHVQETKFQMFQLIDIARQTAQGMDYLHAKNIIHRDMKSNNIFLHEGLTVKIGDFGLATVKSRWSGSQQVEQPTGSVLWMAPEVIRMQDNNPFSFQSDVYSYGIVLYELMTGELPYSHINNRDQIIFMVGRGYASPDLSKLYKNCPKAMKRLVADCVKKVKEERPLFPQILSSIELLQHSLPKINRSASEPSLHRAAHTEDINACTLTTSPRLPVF
Chain of Protein kinase C eta type (Homo sapiens) (P24723 whole entry): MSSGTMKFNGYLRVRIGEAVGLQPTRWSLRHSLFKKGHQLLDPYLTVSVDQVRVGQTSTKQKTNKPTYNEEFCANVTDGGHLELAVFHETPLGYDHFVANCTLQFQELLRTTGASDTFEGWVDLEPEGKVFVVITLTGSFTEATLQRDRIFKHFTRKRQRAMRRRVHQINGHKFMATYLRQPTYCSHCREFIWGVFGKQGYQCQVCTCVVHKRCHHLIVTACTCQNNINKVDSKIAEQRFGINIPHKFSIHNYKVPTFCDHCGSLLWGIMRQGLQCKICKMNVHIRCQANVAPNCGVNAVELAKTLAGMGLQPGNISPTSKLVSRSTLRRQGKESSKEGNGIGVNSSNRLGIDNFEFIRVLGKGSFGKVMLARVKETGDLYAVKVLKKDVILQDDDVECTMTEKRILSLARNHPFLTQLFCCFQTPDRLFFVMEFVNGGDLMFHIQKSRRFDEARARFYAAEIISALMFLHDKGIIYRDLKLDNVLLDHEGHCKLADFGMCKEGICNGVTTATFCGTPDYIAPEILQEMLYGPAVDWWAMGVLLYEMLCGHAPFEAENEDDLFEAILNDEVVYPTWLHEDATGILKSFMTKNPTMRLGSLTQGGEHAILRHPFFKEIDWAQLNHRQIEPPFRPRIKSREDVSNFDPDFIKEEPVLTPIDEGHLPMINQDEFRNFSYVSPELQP
Chain of Mitogen-activated protein kinase 10 (Homo sapiens) (P53779 whole entry): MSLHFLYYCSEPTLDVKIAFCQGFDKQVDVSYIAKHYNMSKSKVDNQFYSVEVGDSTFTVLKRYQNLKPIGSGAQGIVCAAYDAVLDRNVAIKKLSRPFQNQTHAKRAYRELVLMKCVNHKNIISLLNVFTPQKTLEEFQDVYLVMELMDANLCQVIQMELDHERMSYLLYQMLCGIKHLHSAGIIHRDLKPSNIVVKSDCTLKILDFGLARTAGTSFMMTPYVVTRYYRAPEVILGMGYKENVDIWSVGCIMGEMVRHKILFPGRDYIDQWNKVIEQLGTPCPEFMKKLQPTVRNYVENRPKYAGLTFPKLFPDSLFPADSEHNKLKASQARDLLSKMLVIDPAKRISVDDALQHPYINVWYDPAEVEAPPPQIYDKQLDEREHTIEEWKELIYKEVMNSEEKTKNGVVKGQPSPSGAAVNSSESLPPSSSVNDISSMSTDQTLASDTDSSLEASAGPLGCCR
Chain of Glycogen synthase kinase-3 beta (Homo sapiens) (P49841 whole entry, looked up): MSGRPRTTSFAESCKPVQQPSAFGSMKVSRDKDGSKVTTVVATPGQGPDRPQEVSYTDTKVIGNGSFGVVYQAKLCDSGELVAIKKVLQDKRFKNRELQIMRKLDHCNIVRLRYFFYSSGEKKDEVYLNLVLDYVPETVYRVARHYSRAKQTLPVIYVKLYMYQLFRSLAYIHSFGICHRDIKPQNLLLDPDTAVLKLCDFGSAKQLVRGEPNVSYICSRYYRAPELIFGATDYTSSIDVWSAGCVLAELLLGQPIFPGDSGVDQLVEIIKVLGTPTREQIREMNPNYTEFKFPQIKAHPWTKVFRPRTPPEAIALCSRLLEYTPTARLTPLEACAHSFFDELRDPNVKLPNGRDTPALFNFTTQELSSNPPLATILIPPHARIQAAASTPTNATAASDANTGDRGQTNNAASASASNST
Chain of Ephrin type-A receptor 2 (Homo sapiens) (P29317 whole entry): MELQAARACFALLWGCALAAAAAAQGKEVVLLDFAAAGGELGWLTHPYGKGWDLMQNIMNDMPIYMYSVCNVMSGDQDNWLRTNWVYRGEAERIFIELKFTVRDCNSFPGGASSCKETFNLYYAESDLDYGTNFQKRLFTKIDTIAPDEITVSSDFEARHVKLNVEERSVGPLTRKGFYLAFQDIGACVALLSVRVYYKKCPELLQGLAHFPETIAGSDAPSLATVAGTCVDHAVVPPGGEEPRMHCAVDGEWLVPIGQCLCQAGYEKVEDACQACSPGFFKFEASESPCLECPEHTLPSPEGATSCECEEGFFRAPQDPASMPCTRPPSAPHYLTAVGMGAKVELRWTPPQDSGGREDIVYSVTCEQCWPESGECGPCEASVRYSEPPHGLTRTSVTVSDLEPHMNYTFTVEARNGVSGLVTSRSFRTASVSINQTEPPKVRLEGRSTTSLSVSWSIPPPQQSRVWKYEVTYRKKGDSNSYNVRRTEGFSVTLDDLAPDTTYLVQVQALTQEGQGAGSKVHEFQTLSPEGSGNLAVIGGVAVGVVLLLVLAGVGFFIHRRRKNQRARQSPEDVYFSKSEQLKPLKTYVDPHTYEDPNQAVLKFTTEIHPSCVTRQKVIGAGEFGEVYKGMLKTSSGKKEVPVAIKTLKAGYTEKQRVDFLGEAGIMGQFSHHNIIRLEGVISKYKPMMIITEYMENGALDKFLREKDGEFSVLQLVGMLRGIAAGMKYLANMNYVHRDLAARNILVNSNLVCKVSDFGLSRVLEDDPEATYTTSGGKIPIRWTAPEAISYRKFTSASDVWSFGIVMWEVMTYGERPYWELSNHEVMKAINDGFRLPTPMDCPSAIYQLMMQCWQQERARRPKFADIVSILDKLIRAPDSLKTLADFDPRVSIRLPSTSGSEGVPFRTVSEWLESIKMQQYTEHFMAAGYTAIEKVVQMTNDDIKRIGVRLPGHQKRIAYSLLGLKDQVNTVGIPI

With `Cn1cc(Cl)c2c(Oc3c(F)cc(Nc4cc(Cl)nc(N)n4)cc3F)ccnc21` [BAY-4900] the residual activity [1] was 77% and the residual activity [2] was 84%.
In the case of `Cc1c[nH]c2nccc(Oc3c(F)cc(Nc4cc(Cl)nc(N)n4)cc3F)c12` [BAY-549], the IC50 ([3]; Homo sapiens, PC-3) is reported as 9.4 µM, the TGI ([3]; Homo sapiens, PC-3) is reported as greater than 100 µM and the CC50 ([3]; Homo sapiens, PC-3, read-out: LC50 (the source's name)) is reported as greater than 100 µM. The “Mean % growth (n = 2) for 10.0 µM probe concentration” value ([3]; ± SEM 1 % growth) was 48%, the “Mean % growth (n = 2) for 0.01 µM probe concentration” value ([3]; ± SEM 2 % growth) was 97% and the “Mean % growth (n = 2) for 1.0 µM probe concentration” value ([3]; ± SEM 3 % growth) was 58%. For the same compound, the “Mean % growth (n = 2) for 100.0 µM probe concentration” value ([3]; ± SEM 3 % growth) was 29%, the “Mean % growth (n = 2) for 0.1 µM probe concentration” value ([3]; ± SEM 5 % growth) was 102% and the inhibition [4] was 76%. The IC50 ([5]; Homo sapiens, Leukemia 1-IL-60) was 21 µM, the TGI ([5]; Homo sapiens, Leukemia 1-IL-60) was greater than 100 µM and the CC50 ([5]; Homo sapiens, Leukemia 1-IL-60, read-out: LC50 (the source's name)) was greater than 100 µM. The “Mean % growth (n = 2) for 100.0 µM probe concentration” value ([5]; ± SEM 2 % growth) was 35%, the “Mean % growth (n = 2) for 0.01 µM probe concentration” value ([5]; ± SEM 4 % growth) was 98% and the “Mean % growth (n = 2) for 0.1 µM probe concentration” value ([5]; ± SEM 4 % growth) was 88%. The “Mean % growth (n = 2) for 1.0 µM probe concentration” value ([5]; ± SEM 5 % growth) was 89%, the “Mean % growth (n = 2) for 10.0 µM probe concentration” value ([5]; ± SEM 6 % growth) was 53% and the inhibition [6] was 8%. For the same compound, the inhibition [7] was 57%, the inhibition [8] was 6% and the inhibition [9] was -8%. The inhibition [10] was -8%, the inhibition [11] was -8.68% and the inhibition [12] was 4%. For the same compound, the inhibition [13] was -1%, the IC50 ([14]; Homo sapiens, HC-4) was 2.1 µM and the TGI ([14]; Homo sapiens, HC-4) was 13 µM. For the same compound, the CC50 ([14]; Homo sapiens, HC-4, read-out: LC50 (the source's name)) was 82 µM, the “Mean % growth (n = 2) for 0.1 µM probe concentration” value ([14]; ± SEM 1 % growth) was 94% and the “Mean % growth (n = 2) for 0.01 µM probe concentration” value ([14]; ± SEM 5 % growth) was 102%. For the same compound, the “Mean % growth (n = 2) for 1.0 µM probe concentration” value ([14]; ± SEM 5 % growth) was 59%, the “Mean % growth (n = 2) for 10.0 µM probe concentration” value ([14]; ± SEM 8 % growth) was 12% and the “Mean % growth (n = 2) for 100.0 µM probe concentration” value ([14]; ± SEM 8 % growth) was -56%. The inhibition [15] was 24%, the IC50 [16] was 0.065 µM (active) and the inhibition [17] was 65%.
